≈ marks a conversion by molar mass, not a printed value. Read-outs that look alike come from different tables or passages of the source.
Experiments:
[1] = system: K. pneumoniae NVT1001 and its ΔompK35/36 and/or ΔramR mutants; experiment: Etest MIC, OmpK35/36 loss and AcrAB-TolC overexpression (ΔramR) strains (Table 6); format: cell-based, Klebsiella pneumoniae; details: Klebsiella pneumoniae
How it was run: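 MICs were read by Etest strip following the manufacturer's instructions, and values falling between standard two-fold dilutions were rounded up to the next two-fold step. Ceftazidime and cefotaxime were also tested by CLSI broth microdilution and interpreted against CLSI 2017 breakpoints; cephalothin used CLSI 2015 and moxifloxacin EUCAST 2017.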

[2] = system: K. pneumoniae NVT1001 ΔramRΔompK35/36 mutant and its revertants; experiment: Etest MIC, ΔramRΔompK35/36 mutant and its revertants (Table 7); format: cell-based; details: Klebsiella pneumoniae
[3] = system: K. pneumoniae NVT1001 strains with carbapenemase plasmids; experiment: Etest MIC of β-lactams, OmpK35/36 loss, ΔramR and/or carbapenemase (Table 9); format: cell-based, Klebsiella pneumoniae; details: for MIC: Klebsiella pneumoniae
Experimental: DNA fragments of the resistance genes along with their flanking regions were amplified from clinical plasmids via PCR with specific primer pairs. The resulting PCR fragments were digested and then cloned into the plasmid pACYC177 or pACYC184. The resulting plasmids were then transformed into K. pneumoniae strain NVT1001 via electroporation. The recombinant bacteria were plated onto LB agar plates containing kanamycin (50 mg/L) or chloramphenicol (50 mg/L), and the presence of the cloned gene was confirmed via PCR and DNA sequencing.
The MICs of antibiotics were determined using the Etest (Biodisk AB, Sweden) according to the manufacturer's instructions. The MICs from the Etest, which fall between standard two-fold dilutions, were rounded up to the next highest two-fold value. The MICs of ceftazidime and cefotaxime against K. pneumoniae NVT1001 harbouring the pACYC177 plasmid with blaOXA-48 were further determined using a broth microdilution test according to the recommendations of the CLSI,^25 and the results were interpreted according to the breakpoints established by the CLSI in 2017.^25 Meanwhile, due to the lack of CLSI breakpoints in 2016 and 2017, the results for cephalothin were interpreted according to the breakpoints established by the CLSI in 2015,^26 and the results for moxifloxacin were interpreted according to the breakpoints established by the EUCAST in 2017.^27

## CO[C@@]1(NC(=O)Cc2cccs2)C(=O)N2C(C(=O)O)=C(COC(N)=O)CS[C@@H]21 [Cefoxitin]
[1]; WT, NVT1001, read-out: MIC
  MIC: 4 µg/mL (≈ 9.36 µM)
[1]; Δ35, ΔompK35 mutant
  MIC: 4 µg/mL (≈ 9.36 µM)
[1]; Δ35/36, ΔompK35/36 mutant
  MIC: 128 µg/mL (≈ 299 µM)
[1]; Δ36, ΔompK36 mutant
  MIC: 16 µg/mL (≈ 37.4 µM)
[1]; ΔramR mutant
  MIC: 64 µg/mL (≈ 150 µM)
[1]; ΔramRΔ35, ΔramRΔompK35 mutant
  MIC: 64 µg/mL (≈ 150 µM)
[1]; ΔramRΔ35/36, ΔramRΔompK35/36 mutant
  MIC: > 256 µg/mL
[1]; ΔramRΔ36, ΔramRΔompK36 mutant
  MIC: > 256 µg/mL
[2]; ΔramRΔompK35/36::ompK35/36 revertant
  MIC: 64 µg/mL
[2]; ΔramRΔompK35/36::ompK35 revertant
  MIC: > 256 µg/mL
[2]; ΔramRΔompK35/36::ompK36 revertant
  MIC: 64 µg/mL
[2]; ΔramRΔompK35/36::ramR revertant
  MIC: 64 µg/mL
[2]; ΔramRΔompK35/36::ramR::ompK35/36 revertant
  MIC: 4 µg/mL
[2]; ΔramRΔompK35/36::ramR::ompK35 revertant
  MIC: 16 µg/mL
[2]; ΔramRΔompK35/36::ramR::ompK36 revertant
  MIC: 8 µg/mL
[2]; ΔramRΔompK35/36 mutant
  MIC: > 256 µg/mL
[3]; IMP-8 on pACYC177, WT (NVT1001), read-out: MIC
  MIC: > 256 µg/mL
[3]; IMP-8 on pACYC177, Δ35 (ΔompK35 mutant)
  MIC: > 256 µg/mL
[3]; IMP-8 on pACYC177, Δ35/36 (ΔompK35/36 mutant)
  MIC: > 256 µg/mL
[3]; IMP-8 on pACYC177, Δ36 (ΔompK36 mutant)
  MIC: > 256 µg/mL
[3]; IMP-8 on pACYC177, ΔramR mutant
  MIC: > 256 µg/mL
[3]; IMP-8 on pACYC177, ΔramRΔ35 (ΔramRΔompK35 mutant)
  MIC: > 256 µg/mL
[3]; IMP-8 on pACYC177, ΔramRΔ35/36 (ΔramRΔompK35/36 mutant)
  MIC: > 256 µg/mL
[3]; IMP-8 on pACYC177, ΔramRΔ36 (ΔramRΔompK36 mutant)
  MIC: > 256 µg/mL
[3]; KPC-2 on pACYC177, WT (NVT1001), read-out: MIC
  MIC: 16 µg/mL
[3]; KPC-2 on pACYC177, Δ35 (ΔompK35 mutant)
  MIC: 32 µg/mL
[3]; KPC-2 on pACYC177, Δ35/36 (ΔompK35/36 mutant)
  MIC: > 256 µg/mL
[3]; KPC-2 on pACYC177, Δ36 (ΔompK36 mutant)
  MIC: 64 µg/mL
[3]; KPC-2 on pACYC177, ΔramR mutant
  MIC: 128 µg/mL
[3]; KPC-2 on pACYC177, ΔramRΔ35 (ΔramRΔompK35 mutant)
  MIC: 128 µg/mL
[3]; KPC-2 on pACYC177, ΔramRΔ35/36 (ΔramRΔompK35/36 mutant)
  MIC: > 256 µg/mL
[3]; KPC-2 on pACYC177, ΔramRΔ36 (ΔramRΔompK36 mutant)
  MIC: > 256 µg/mL
[3]; KPC-3 on pACYC177, WT (NVT1001), read-out: MIC
  MIC: 16 µg/mL
[3]; KPC-3 on pACYC177, Δ35 (ΔompK35 mutant)
  MIC: 32 µg/mL
[3]; KPC-3 on pACYC177, Δ35/36 (ΔompK35/36 mutant)
  MIC: > 256 µg/mL
[3]; KPC-3 on pACYC177, Δ36 (ΔompK36 mutant)
  MIC: 64 µg/mL
[3]; KPC-3 on pACYC177, ΔramR mutant
  MIC: 128 µg/mL
[3]; KPC-3 on pACYC177, ΔramRΔ35 (ΔramRΔompK35 mutant)
  MIC: 128 µg/mL
[3]; KPC-3 on pACYC177, ΔramRΔ35/36 (ΔramRΔompK35/36 mutant)
  MIC: > 256 µg/mL
[3]; KPC-3 on pACYC177, ΔramRΔ36 (ΔramRΔompK36 mutant)
  MIC: > 256 µg/mL
[3]; NDM-1 on pACYC177, WT (NVT1001), read-out: MIC
  MIC: > 256 µg/mL
[3]; NDM-1 on pACYC177, Δ35 (ΔompK35 mutant)
  MIC: > 256 µg/mL
[3]; NDM-1 on pACYC177, Δ35/36 (ΔompK35/36 mutant)
  MIC: > 256 µg/mL
[3]; NDM-1 on pACYC177, Δ36 (ΔompK36 mutant)
  MIC: > 256 µg/mL
[3]; NDM-1 on pACYC177, ΔramR mutant
  MIC: > 256 µg/mL
[3]; NDM-1 on pACYC177, ΔramRΔ35 (ΔramRΔompK35 mutant)
  MIC: > 256 µg/mL
[3]; NDM-1 on pACYC177, ΔramRΔ35/36 (ΔramRΔompK35/36 mutant)
  MIC: > 256 µg/mL
[3]; NDM-1 on pACYC177, ΔramRΔ36 (ΔramRΔompK36 mutant)
  MIC: > 256 µg/mL
[3]; OXA-48 on pACYC177, WT (NVT1001), read-out: MIC
  MIC: 4 µg/mL
[3]; OXA-48 on pACYC177, Δ35 (ΔompK35 mutant)
  MIC: 8 µg/mL
[3]; OXA-48 on pACYC177, Δ35/36 (ΔompK35/36 mutant)
  MIC: 128 µg/mL
[3]; OXA-48 on pACYC177, Δ36 (ΔompK36 mutant)
  MIC: 16 µg/mL
[3]; OXA-48 on pACYC177, ΔramR mutant
  MIC: 128 µg/mL
[3]; OXA-48 on pACYC177, ΔramRΔ35 (ΔramRΔompK35 mutant)
  MIC: 64 µg/mL
[3]; OXA-48 on pACYC177, ΔramRΔ35/36 (ΔramRΔompK35/36 mutant)
  MIC: > 256 µg/mL
[3]; OXA-48 on pACYC177, ΔramRΔ36 (ΔramRΔompK36 mutant)
  MIC: > 256 µg/mL
[3]; VIM-1 on pACYC177, WT (NVT1001), read-out: MIC
  MIC: > 256 µg/mL
[3]; VIM-1 on pACYC177, Δ35 (ΔompK35 mutant)
  MIC: > 256 µg/mL
[3]; VIM-1 on pACYC177, Δ35/36 (ΔompK35/36 mutant)
  MIC: > 256 µg/mL
[3]; VIM-1 on pACYC177, Δ36 (ΔompK36 mutant)
  MIC: > 256 µg/mL
[3]; VIM-1 on pACYC177, ΔramR mutant
  MIC: > 256 µg/mL
[3]; VIM-1 on pACYC177, ΔramRΔ35 (ΔramRΔompK35 mutant)
  MIC: > 256 µg/mL
[3]; VIM-1 on pACYC177, ΔramRΔ35/36 (ΔramRΔompK35/36 mutant)
  MIC: > 256 µg/mL
[3]; VIM-1 on pACYC177, ΔramRΔ36 (ΔramRΔompK36 mutant)
  MIC: > 256 µg/mL
[3]; no supplemental plasmid, WT (NVT1001), read-out: MIC
  MIC: 4 µg/mL
[3]; no supplemental plasmid, Δ35 (ΔompK35 mutant)
  MIC: 4 µg/mL
[3]; no supplemental plasmid, Δ35/36 (ΔompK35/36 mutant)
  MIC: 128 µg/mL
[3]; no supplemental plasmid, Δ36 (ΔompK36 mutant)
  MIC: 16 µg/mL
[3]; no supplemental plasmid, ΔramR mutant
  MIC: 64 µg/mL
[3]; no supplemental plasmid, ΔramRΔ35 (ΔramRΔompK35 mutant)
  MIC: 64 µg/mL
[3]; no supplemental plasmid, ΔramRΔ35/36 (ΔramRΔompK35/36 mutant)
  MIC: > 256 µg/mL
[3]; no supplemental plasmid, ΔramRΔ36 (ΔramRΔompK36 mutant)
  MIC: > 256 µg/mL
[3]; production of KPC-2 or KPC-3 alone
  resistance category: intermediate resistance

Source: patent publication US10760110B2, “Antibiotic testing and screening system” (priority 2017, dated 2020)
